Converted amounts (≈) assume the structure as drawn. Read-outs that look alike come from different tables or passages of the source.
What was measured:
[1] = test system: ESBL- and carbapenemase-producing Klebsiella pneumoniae; conditions: ESBL- and carbapenemase-producing K. pneumoniae; cited from earlier work
[2] = test system: carbapenemase (KPC)-producing K. pneumoniae clinical strain I1; assay: Bacterial growth curve analysis (Gompertz model); format: cell-based; conditions: for IC50: Klebsiella pneumoniae, read-out: IC50 for FOM (concentration decreasing maximum growth by 50%)
Experimental: Briefly, an overnight culture of K. pneumoniae I1 was diluted in Mueller-Hinton broth in a 96-well plate, incubated at 37° C. (150 rpm), and OD600 was assessed every 30 min.
The growth curves were modeled using a modified 3-parameter Gompertz equation (Zwietering et al., Appl Environ Microbiol 1990, 56(6)1875-81), which facilitated quantification of the lag time (min), growth rate (OD units/min) and maximum growth (OD units). […] The maximum growth value was determined from the curves in FIGS. 12A-12C using a 3-parameter Gompertz equation.

[3] = test system: chromosomal FosA genes expressed in E. coli; conditions: cited from earlier work
FosA3 T9A = FosA3 T9A (Escherichia coli, UniProt D7UQM0, T9A); assay: Tryptophan fluorescence binding studies
FosA3 W46A = FosA3 W46A (Escherichia coli, UniProt D7UQM0, W46A); assay: biochemical
[4] = test system: fosfomycin-resistant Escherichia coli strain containing a deletion in the uhpT gene; assay: Growth curves of FosA-non-producing uhpT deletion strain; format: cell-based; conditions: absence and presence of 32 μg/mL fosfomycin; strain without FosA gene
Experimental: (§1) An overnight culture of each antibiotic-resistant bacterium was grown in Mueller-Hinton Broth at 37° C., 150 rpm. The following day, the culture was diluted such that its OD600 was 0.2. The diluted culture was allowed to grow at 37° C. for 1 h. Following this, the culture was diluted such that its OD600 was 0.1. In a 96-well, round-bottom plate, three groups were set-up. […] Group three contained 10 two-fold dilutions of fosfomycin (0-1024 μg/mL). All groups contained 25% volume of the […] and 25 μg/mL glucose-6-phosphate. The plate was incubated at 37° C. for up to […]. The OD600 was assessed every […]. Data was analyzed in PRISM software or SigmaPlot® software (Systat Software Inc., San Jose, Calif.). The initial OD600 subtracted as background, and fit with a logistic growth curve.
FIGS. 8A-8B show the growth curves of a fosfomycin-resistant Escherichia coli strain containing a deletion in the uhpT gene. […] Fosfomycin resistance is conferred by decreased transport of the antibiotic across the bacterial cell wall.

[5] = test system: fosfomycin-resistant, FosA-producing Escherichia coli; assay: Growth inhibition of fosfomycin-resistant FosA-producing bacteria; format: cell-based; conditions: with 32 μg/mL fosfomycin; E. coli
Experimental: (§2) Each bacterial strain is resistant to fosfomycin and caries the species-specific fosfomycin-modifying gene encoding FosA.
as §1

[6] = test system: fosfomycin-resistant, FosA-producing Klebsiella pneumoniae; assay: as above; format: cell-based; conditions: with 32 μg/mL fosfomycin; K. pneumoniae
Experimental: as §2, §1

[7] = test system: fosfomycin-resistant, FosA-producing Enterobacter cloacae; assay: as above; format: cell-based; conditions: with 32 μg/mL fosfomycin; E. cloacae
Experimental: as §2, §1

[8] = test system: fosfomycin-resistant, FosA-producing Pseudomonas aeruginosa; assay: as above; format: cell-based; conditions: with 32 μg/mL fosfomycin; P. aeruginosa
Experimental: as §2, §1

[9] = test system: human peripheral blood mononuclear cells; assay: CellTiter-Glo luminescent cell viability assay; format: cell-based; conditions: 0-224 μg/mL ANY1; data not shown
Experimental: (§3) In all cases, cell viability was assessed using the CellTiter-Glo® luminescent cell viability assay.

[10] = test system: FosA3-producing E. coli YD472; assay: Growth curve analysis, FOM dose response with or without ANY1; format: cell-based; conditions: 112 μg/mL ANY1; P=0.04
FosA3 R96A = FosA3 R96A (Escherichia coli, UniProt D7UQM0, R96A); assay: Tryptophan fluorescence binding studies
FosA3 Y131F = FosA3 Y131F (Escherichia coli, UniProt D7UQM0, Y131F); assay: Tryptophan fluorescence binding studies
FosA = FosA (Klebsiella pneumoniae, UniProt W8UNW6); assay: Steady-state kinetics of ANY1 inhibition of FosA activity; format: biochemical; conditions: for Vmax: 0-50 mM fosfomycin
Experimental: Assays were carried out in a volume of 50 μl at 25° C. in 0.1 M sodium phosphate buffer (pH 8.0) containing 50 mM KCl, 25 μM MnCl2, 30 mM glutathione, and 0-50 mM fosfomycin. A 100 nM concentration of FosA was used to initiate the reaction, which was quenched after 20 minutes for FosA. Reactions were quenched by the addition of 150 μl methanol. Quenched reactions were diluted in 100 μl of 0.1 M sodium phosphate buffer (pH 8.0) containing 1 mM EDTA. Following the addition of 500 μM monochlorobimane, the concentration of glutathione was established by fluorescence spectroscopy using a SpectraMax M2 plate reader (Molecular Devices). A standard curve was prepared using 0 to 750 μM glutathione. Data were fitted to Michaelis Menten equations using SigmaPlot (Systat Software Inc., San Jose, Calif.).

[11] = test system: FosB enzyme from Gram-positive pathogens; assay: Isothermal titration calorimetry; format: binding; conditions: data not shown
FosA3 WT = FosA3 WT (Escherichia coli, UniProt D7UQM0); assay: Tryptophan fluorescence binding studies
[12] = target: FosA^KP (chromosomal K. pneumoniae FosA) (Klebsiella pneumoniae, UniProt W8UNW6); assay: Isothermal titration calorimetry; format: binding
K. pneumoniae I1 = assay: Time-kill experiments; format: cell-based; conditions: FOM with ANY1
FosA3 Y131A = FosA3 Y131A (Escherichia coli, UniProt D7UQM0, Y131A); assay: Tryptophan fluorescence binding studies
HK2 cells = assay: CellTiter-Glo luminescent cell viability assay; format: cell-based, human; conditions: 0-224 μg/mL ANY1; data not shown
Experimental: as §3

OK cells = assay: CellTiter-Glo luminescent cell viability assay; format: cell-based, marsupial; conditions: 0-224 μg/mL ANY1; data not shown
Experimental: as §3

FosA3 Y65F = FosA3 Y65F (Escherichia coli, UniProt D7UQM0, Y65F); assay: Tryptophan fluorescence binding studies
[13] = test system: KPC-producing clinical strain E. cloacae YDC612; assay: Growth curve analysis, FOM dose response with or without ANY1; format: cell-based; conditions: 112 μg/mL ANY1; P<0.05
E. coli MurA = E. coli MurA (Escherichia coli, UniProt P0A749); assay: Isothermal titration calorimetry; format: binding; conditions: data not shown
FosA3 W34A = FosA3 W34A (Escherichia coli, UniProt D7UQM0, W34A); assay: biochemical
FosA3 S36A = FosA3 S36A (Escherichia coli, UniProt D7UQM0, S36A); assay: Tryptophan fluorescence binding studies
[14] = test system: KPC-producing clinical strain S. marcescens YDC760-2; assay: Growth curve analysis, FOM dose response with or without ANY1; format: cell-based; conditions: 112 μg/mL ANY1; P<0.05
[15] = target: FosA^KP (K. pneumoniae chromosomal FosA) (Klebsiella pneumoniae, UniProt W8UNW6); assay: FosA screening assay (monochlorobimane fluorescence, glutathione consumption); format: biochemical
FosA3 Y39F = FosA3 Y39F (Escherichia coli, UniProt D7UQM0, Y39F); assay: Tryptophan fluorescence binding studies

C[C@@H]1O[C@@H]1P(=O)(O)O [FOM, Fosfomycin]
MIC50 [1]: ~32 µg/mL (≈ 0.232 mM)
MIC90 [1]: ~128 µg/mL (≈ 0.927 mM)
IC50 ([2]; absence of ANY1): 144 ± 16.5 µg/mL (≈ 1.04 mM)
IC50 ([2]; presence of ANY1 (112 μg/mL)): 23.2 ± 4.3 µg/mL
MIC ([3]; FosA of Enterobacter aerogenes): >1024 µg/mL
MIC ([3]; FosA of Enterobacter cloacae): >1024 µg/mL
MIC ([3]; FosA of Klebsiella oxytoca): >1024 µg/mL
MIC ([3]; FosA of Klebsiella pneumoniae): >1024 µg/mL
MIC ([3]; FosA of Morganella morganii): >1024 µg/mL
MIC ([3]; FosA of Proteus mirabilis): 9.8 µg/mL (≈ 0.071 mM)
MIC ([3]; FosA of Providencia rettgeri): >1024 µg/mL
MIC ([3]; FosA of Providencia stuartii): >1024 µg/mL
MIC ([3]; FosA of Pseudomonas aeruginosa): 16 µg/mL (≈ 0.116 mM)
MIC ([3]; FosA of Serratia marcescens): >1024 µg/mL

O=c1[nH]n2cc(-c3n[nH]c(-c4cnc5c(Br)c(=O)[nH]n5c4)c3[N+](=O)[O-])cnc2c1Br [ANY1, 3-bromo-6-[3-(3-bromo-2-oxo-1H-pyrazolo[1,5-a]pyrimidin-6-yl)-4-nitro-1H-pyrazol-5-yl]-1H-pyrazolo[1,5-a]pyrimidin-2-one]
Kd (FosA3 T9A): 1580 ± 97.6 nM
Kd (FosA3 W46A): 2470 ± 111 nM
Inhibition of bacterial growth [4]: did not inhibit the bacterial growth
Inhibition of FosA in the strain, reversing fosfomycin resistance (growth curves) [5]: effectively inhibited FosA
Inhibition of FosA in the strain, reversing fosfomycin resistance (growth curves) [6]: effectively inhibited FosA
Inhibition of FosA in the strain, reversing fosfomycin resistance (growth curves) [7]: effectively inhibited FosA
Inhibition of FosA in the strain, reversing fosfomycin resistance (growth curves) [8]: effectively inhibited FosA
Impact on cell viability [9]: no impact on cell viability
Decrease of the IC50 for FOM by ANY1 [10]: 1.8 fold
Kd (FosA3 R96A): 541 ± 90.1 nM
Kd (FosA3 Y131F): 551 ± 28 nM
Vmax (FosA; 5 μM ANY1): 118.2
Vmax (FosA; 10 μM ANY1): 107
Vmax (FosA; 20 μM ANY1): 154.6
Mode of inhibition with respect to glutathione (FosA; data not shown): non-competitive inhibitor
Mode of inhibition with respect to fosfomycin binding to FosA (FosA; varying fosfomycin, 0-20 μM ANY1): competitive inhibitor
Binding to FosB [11]: did not bind
Kd (FosA3 WT): 441 ± 50.1 nM
Reduction of FOM IC50 by ANY1 ([2]; 112 μg/mL ANY1, P<0.05): ~6 fold
Bacterial growth when FOM was combined with ANY1 ([2]; FOM 32, 64, 128 μg/mL with ANY1 14-224 μg/mL, dose dependent): significantly attenuated
Effect of ANY1 alone on growth ([2]; absence of FOM): no effect
Effect of ANY1 on the activity of gentamicin ([2]; gentamicin ± ANY1 dose-response): did not alter the activity of gentamicin
Increase in FOM activity (maximum growth) ([2]; highest ANY1 concentration tested): ~6 fold
Kd [12]: 180 ± 30 nM
Effect of ANY1 on FOM activity in time-kill (K. pneumoniae I1): significantly increased FOM activity
Kd (FosA3 Y131A): 4880 ± 770 nM
Impact on cell viability (HK2 cells): no impact on cell viability
Impact on cell viability (OK cells): no impact on cell viability
Kd (FosA3 Y65F): 784 ± 74.7 nM
Decrease of the IC50 for FOM by ANY1 [13]: 23 fold
Binding to E. coli MurA (E. coli MurA): did not bind
Kd (FosA3 W34A): 2620 ± 205 nM
Kd (FosA3 S36A): 1360 ± 132 nM
Decrease of the IC50 for FOM by ANY1 [14]: > 100 fold
IC50 [15]: 5000 nM
Kd (FosA3 Y39F): 868 ± 201 nM
